Results from ChEMBL document CHEMBL1201862, “PubChem BioAssay data set” (2004).
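The compound was tested at five concentrations on cells cultured in 96-well plates, with a 48-hour exposure period. The concentration for 50% growth inhibition is given as GI50.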 Activity calls are given as the source filed them. Rule as the data show it: active = GI50 up to about 1.1 µM and inactive = higher.

Columns and labels:
Assay in all cases: NCI tumour cell line growth inhibition, 48 h
MOLT-4 = system: MOLT-4
SK-MEL-28 = system: SK-MEL-28
UACC-62 = system: UACC-62
HCC 2998 = system: HCC 2998
NCI-H522 = system: NCI-H522
SF-539 = system: SF-539
NCI-H23 = system: NCI-H23
SK-OV-3 = system: SK-OV-3
SK-MEL-2 = system: SK-MEL-2
TK-10 = system: TK-10
SN12C = system: SN12C
KM12 = system: KM12
MDA-N = system: MDA-N
A549 = system: A549
CAKI-1 = system: CAKI-1
HCT-116 = system: HCT-116
DU-145 = system: DU-145
NCI/ADR-RES = system: NCI/ADR-RES
RPMI-8226 = system: RPMI-8226
ACHN = system: ACHN
COLO 205 = system: COLO 205
K562 = system: K562
SK-MEL-5 = system: SK-MEL-5
NCI-H460 = system: NCI-H460
UO-31 = system: UO-31
OVCAR-8 = system: OVCAR-8
SF-268 = system: SF-268
T47D = system: T47D
HL-60 = system: HL-60
BT-549 = system: BT-549
U-251 = system: U-251
SR = system: SR
HOP-92 = system: HOP-92
A498 = system: A498
SNB-19 = system: SNB-19
OVCAR-4 = system: OVCAR-4
HCT-15 = system: HCT-15
EKVX = system: EKVX
OVCAR-5 = system: OVCAR-5
786-0 = system: 786-0
PC-3 = system: PC-3
MDA-MB-435 = system: MDA-MB-435
CCRF-CEM = system: CCRF-CEM
Hs-578T = system: Hs-578T
MCF7 = system: MCF7
UACC-257 = system: UACC-257
HT-29 = system: HT-29
HOP-62 = system: HOP-62
MDA-MB-231 = system: MDA-MB-231
OVCAR-3 = system: OVCAR-3
LOX IMVI = system: LOX IMVI
SF-295 = system: SF-295
SW-620 = system: SW-620
IGROV-1 = system: IGROV-1
Malme-3M = system: Malme-3M
NCI-H226 = system: NCI-H226
SNB-75 = system: SNB-75
RXF 393 = system: RXF 393
M14 = system: M14

COc1cc(C2SCC(=O)N2c2ccc(-n3c(-c4ccccc4)nc4ccccc4c3=O)cc2)cc(OC)c1OC (centres undefined)
GI50 (MOLT-4): 20.1 µM (inactive)
GI50 (SK-MEL-28): > 100 µM (inactive)
GI50 (UACC-62): 41.2 µM (inactive)
GI50 (HCC 2998): > 100 µM (inactive)
GI50 (NCI-H522): > 100 µM (inactive)
GI50 (SF-539): > 100 µM (inactive)
GI50 (NCI-H23): > 100 µM (inactive)
GI50 (SK-OV-3): 97.1 µM (inactive)
GI50 (SK-MEL-2): > 100 µM (inactive)
GI50 (TK-10): > 100 µM (inactive)
GI50 (SN12C): > 100 µM (inactive)
GI50 (KM12): 97.3 µM (inactive)
GI50 (MDA-N): > 100 µM (inactive)
GI50 (A549): > 100 µM (inactive)
GI50 (CAKI-1): > 100 µM (inactive)
GI50 (HCT-116): > 100 µM (inactive)
GI50 (DU-145): > 100 µM (inactive)
GI50 (NCI/ADR-RES): > 100 µM (inactive)
GI50 (RPMI-8226): > 100 µM (inactive)
GI50 (ACHN): > 100 µM (inactive)
GI50 (COLO 205): > 100 µM (inactive)
GI50 (K562): > 100 µM (inactive)
GI50 (SK-MEL-5): 68.9 µM (inactive)
GI50 (NCI-H460): > 100 µM (inactive)
GI50 (UO-31): 8.71 µM (inactive)
GI50 (OVCAR-8): > 100 µM (inactive)
GI50 (SF-268): 82.4 µM (inactive)
GI50 (T47D): 27.9 µM (inactive)
GI50 (HL-60): > 100 µM (inactive)
GI50 (BT-549): > 100 µM (inactive)
GI50 (U-251): > 100 µM (inactive)
GI50 (SR): 45.4 µM (inactive)
GI50 (HOP-92): 28.6 µM (inactive)
GI50 (A498): > 100 µM (inactive)
GI50 (SNB-19): > 100 µM (inactive)
GI50 (OVCAR-4): > 100 µM (inactive)
GI50 (HCT-15): 71.1 µM
GI50 (EKVX): > 100 µM (inactive)
GI50 (OVCAR-5): > 100 µM (inactive)
GI50 (786-0): > 100 µM (inactive)
GI50 (PC-3): > 100 µM (inactive)
GI50 (MDA-MB-435): > 100 µM (inactive)
GI50 (CCRF-CEM): 69.7 µM (inactive)
GI50 (Hs-578T): 20.1 µM (inactive)
GI50 (MCF7): > 100 µM (inactive)
GI50 (UACC-257): > 100 µM (inactive)
GI50 (HT-29): > 100 µM (inactive)
GI50 (HOP-62): > 100 µM (inactive)
GI50 (MDA-MB-231): > 100 µM (inactive)
GI50 (OVCAR-3): > 100 µM (inactive)
GI50 (LOX IMVI): > 100 µM (inactive)
GI50 (SF-295): > 100 µM (inactive)
GI50 (SW-620): > 100 µM (inactive)
GI50 (IGROV-1): > 100 µM (inactive)

COCCOC(=O)C(C)=[N+]=[N-]
GI50 (Malme-3M): > 100 µM (inactive)
GI50 (SK-MEL-28): > 100 µM (inactive)
GI50 (UACC-62): > 100 µM (inactive)
GI50 (HCC 2998): > 100 µM (inactive)
GI50 (NCI-H522): > 100 µM (inactive)
GI50 (NCI-H23): > 100 µM (inactive)
GI50 (TK-10): > 100 µM (inactive)
GI50 (SN12C): > 100 µM (inactive)
GI50 (KM12): > 100 µM (inactive)
GI50 (MDA-N): > 100 µM (inactive)
GI50 (NCI-H226): > 100 µM (inactive)
GI50 (CAKI-1): > 100 µM (inactive)
GI50 (HCT-116): > 100 µM (inactive)
GI50 (DU-145): > 100 µM (inactive)
GI50 (NCI/ADR-RES): > 100 µM (inactive)
GI50 (RPMI-8226): > 100 µM (inactive)
GI50 (ACHN): > 100 µM (inactive)
GI50 (COLO 205): > 100 µM (inactive)
GI50 (K562): > 100 µM (inactive)
GI50 (SK-MEL-5): > 100 µM (inactive)
GI50 (NCI-H460): > 100 µM (inactive)
GI50 (UO-31): > 100 µM (inactive)
GI50 (OVCAR-8): > 100 µM (inactive)
GI50 (SF-268): > 100 µM (inactive)
GI50 (T47D): > 100 µM (inactive)
GI50 (BT-549): > 100 µM (inactive)
GI50 (U-251): > 100 µM (inactive)
GI50 (SR): 68.1 µM (inactive)
GI50 (SNB-75): > 100 µM (inactive)
GI50 (A498): > 100 µM (inactive)
GI50 (RXF 393): > 100 µM (inactive)
GI50 (SNB-19): > 100 µM (inactive)
GI50 (OVCAR-4): > 100 µM (inactive)
GI50 (HCT-15): > 100 µM
GI50 (EKVX): > 100 µM (inactive)
GI50 (OVCAR-5): > 100 µM (inactive)
GI50 (786-0): > 100 µM (inactive)
GI50 (PC-3): > 100 µM (inactive)
GI50 (MDA-MB-435): > 100 µM (inactive)
GI50 (Hs-578T): > 100 µM (inactive)
GI50 (MCF7): > 100 µM (inactive)
GI50 (UACC-257): > 100 µM (inactive)
GI50 (HT-29): > 100 µM (inactive)
GI50 (HOP-62): > 100 µM (inactive)
GI50 (MDA-MB-231): > 100 µM (inactive)
GI50 (OVCAR-3): > 100 µM (inactive)
GI50 (LOX IMVI): > 100 µM (inactive)
GI50 (SF-295): > 100 µM (inactive)
GI50 (SW-620): > 100 µM (inactive)
GI50 (IGROV-1): > 100 µM (inactive)

COc1cccc(C23CCN(C)C(CC(O)C2)C3)c1OC (centres undefined)
GI50 (MOLT-4): > 100 µM (inactive)
GI50 (Malme-3M): > 100 µM (inactive)
GI50 (SK-MEL-28): > 100 µM (inactive)
GI50 (UACC-62): > 100 µM (inactive)
GI50 (NCI-H522): > 100 µM (inactive)
GI50 (SF-539): > 100 µM (inactive)
GI50 (NCI-H23): > 100 µM (inactive)
GI50 (SK-OV-3): > 100 µM (inactive)
GI50 (SK-MEL-2): > 100 µM (inactive)
GI50 (TK-10): > 100 µM (inactive)
GI50 (SN12C): > 100 µM (inactive)
GI50 (KM12): > 100 µM (inactive)
GI50 (MDA-N): > 100 µM (inactive)
GI50 (A549): > 100 µM (inactive)
GI50 (NCI-H226): > 100 µM (inactive)
GI50 (CAKI-1): > 100 µM (inactive)
GI50 (HCT-116): > 100 µM (inactive)
GI50 (DU-145): > 100 µM (inactive)
GI50 (NCI/ADR-RES): > 100 µM (inactive)
GI50 (RPMI-8226): > 100 µM (inactive)
GI50 (ACHN): > 100 µM (inactive)
GI50 (COLO 205): > 100 µM (inactive)
GI50 (K562): > 100 µM (inactive)
GI50 (SK-MEL-5): > 100 µM (inactive)
GI50 (UO-31): > 100 µM (inactive)
GI50 (OVCAR-8): > 100 µM (inactive)
GI50 (M14): > 100 µM (inactive)
GI50 (SF-268): > 100 µM (inactive)
GI50 (T47D): > 100 µM (inactive)
GI50 (HL-60): > 100 µM (inactive)
GI50 (BT-549): > 100 µM (inactive)
GI50 (U-251): > 100 µM (inactive)
GI50 (SR): > 100 µM (inactive)
GI50 (HOP-92): > 100 µM (inactive)
GI50 (A498): > 100 µM (inactive)
GI50 (SNB-19): > 100 µM (inactive)
GI50 (OVCAR-4): > 100 µM (inactive)
GI50 (HCT-15): > 100 µM
GI50 (EKVX): > 100 µM (inactive)
GI50 (OVCAR-5): > 100 µM (inactive)
GI50 (786-0): > 100 µM (inactive)
GI50 (PC-3): > 100 µM (inactive)
GI50 (MDA-MB-435): > 100 µM (inactive)
GI50 (CCRF-CEM): > 100 µM (inactive)
GI50 (Hs-578T): > 100 µM (inactive)
GI50 (MCF7): > 100 µM (inactive)
GI50 (UACC-257): > 100 µM (inactive)
GI50 (HT-29): > 100 µM (inactive)
GI50 (HOP-62): > 100 µM (inactive)
GI50 (MDA-MB-231): > 100 µM (inactive)
GI50 (OVCAR-3): > 100 µM (inactive)
GI50 (LOX IMVI): > 100 µM (inactive)
GI50 (SF-295): > 100 µM (inactive)
GI50 (SW-620): > 100 µM (inactive)
GI50 (IGROV-1): > 100 µM (inactive)
